Columns and labels:
Type in all cases: in vivo
[1] = test system: Myrmica rubra fire ants; test: Exp. 17: choice between lethal and non-lethal liquid bait, survival of laboratory colonies; conditions: boric acid as lethal agent in baits; conclusion from Exps. 17-19 (M. rubra, F. oreas, C. modoc)
[2] = test system: Myrmica rubra fire ants; test: Laboratory consumption of liquid nutrient baits (Exps. 2, 4, 6, 8, 10, 12)
Procedure: (§1) Liquid nutrient solutions for experiments (see Table 1 for nutrient concentrations) were prepared by weighing dry ingredients (TR 204 scale; Denver Instrument Company, CO, USA), and then mixing them in distilled water. Aliquots (1 mL) of these solutions were pipetted into 1.5-mL Eppendorf tubes (Thermo Fisher Scientific, Waltham, MA 02451, U.S.A.) which were stored in a freezer (−4° C.) until needed.
(§2) Prior to experiments, Eppendorf tubes were removed from the freezer to thaw, and then vortexed to dissolve all solutes. Then, a 1-cm long piece of cotton dental wick (Richmond Dental & Medical, Charlotte, NC 28205, USA) was inserted into each tube, thus allowing ants to ingest the liquid without spillage. Also prior to bioassays, colonies were deprived of sugar water and food for 24 hours and 4 hours, respectively (the maximum time ants could endure without these foods before they attempted to chew their way out of containers). […]
(§3) Colonies of C. modoc (Exp. 1) and M. rubra (Exp. 2) were offered three choices: (1) 11 EAAs+10 non-EAAs (1.05% total w/v) in water; (2) 10 non-EAAs (0.5% w/v) in water; and (3) a water control. […] Data were analyzed using generalized linear models (GLM) and generalized linear mixed models (GLMM). For all models, the significance (p 0.05) of each predictor was assessed using a likelihood ratio test (LRT), and Tukey adjusted pairwise comparisons between means. […]

[3] = test system: Camponotus modoc field colonies; test: Exp. 13: seasonal consumption of liquid food baits by field colonies; conditions: Exp. 13, Jun. 18 to Sep. 7, 2021
Text: (§4) Tubes were spaced around the entrance of C. modoc and M. rubra nests, with tube positions randomly assigned in each replicate.
(§5) For the C. modoc experiment (Exp. 13), Eppendorf tubes were affixed 5 cm apart to trees or logs housing a colony as shown, for example, in FIG. 6b. For the M. rubra experiment (Exp. 14), tubes were placed 5 cm apart around the entrance of subterranean nests. Evaporation control tubes were placed in Tupperware containers (15 cm×9 cm×10 cm) with a mesh-covered hole in the lid, and containers were set near ant nests. Replicates with M. rubra colonies (n=10; repeated on 7 dates) were run for 4 hours, and replicates with C. modoc colonies (n=13; repeated on 6 dates) were run for 24 hours. After replicates were terminated, tubes were capped, transported to the laboratory in a cooler, and weighed. All field studies were run on warm and sunny days with observable ant activity.
(§6) Colonies of C. modoc were located along the Mamquam forest service road (near Squamish, BC, Canada) and colonies of M. rubra were located at Inter River Park (District of North Vancouver, BC, Canada). […] Throughout the summer season, nutrient consumption by colonies was measured in circa 3-week intervals on six dates for C. modoc colonies from Jun. 18, 2021 to Sep. 7, 2021, and on seven dates for M. rubra colonies from May 21, 2021 to Sep. 13, 2021.

[4] = test system: Myrmica rubra field colonies; test: Exp. 14: seasonal consumption of liquid food baits by field colonies
Text: as §4, §5, §6

[5] = test system: Lasius niger black garden ants; test: Exp. 15: consumption of liquid food baits by field colonies; conditions: Exp. 15: EAAs 5.55%, sucrose 5.55%, EAAs 1.0% + sucrose 4.55% w/v, water
Text: In Experiments 15 and 16, the bait of EAAs and sucrose was effective for diverse ant taxa including black garden ants and thatching ants, as shown in FIG. 7. In Experiment 15 (n=10), colonies of Lasius niger black garden ants were located at the base of trees on the Burnaby campus of Simon Fraser University, and tubes were affixed next to each other on tree trunks alongside the ants' foraging trails. In Experiment 16 (n=10), colonies of Formica aserva thatching ants were located along the Mamquam forest service road (see above), and tubes were placed on top of tree stumps that contained an ant colony. For both experiments, evaporation control tubes were placed in Tupperware containers (15 cm×9 cm×10 cm) with a mesh-covered hole in the lid, and containers were set near ant colonies. Each colony was offered four Eppendorf tubes that contained: (1) EAAs (5.55% w/v); (2) sucrose (5.55% w/v), (3) EAAs (1.0% w/v)+sucrose (4.55% w/v); and (4) plain water (control).

[6] = test system: Camponotus modoc carpenter ants; test: Laboratory consumption of liquid nutrient baits (Exps. 1, 3, 5, 7, 9, 11); conditions: Exps. 5 and 7: single nutrients and ternary blend, unadjusted and adjusted concentrations
Procedure: as §1, §2, §3

## OB(O)O [boric acid]
[1]
  aversion to bait consumption: not aversive to bait consumption

## OC[C@H]1O[C@@](CO)(O[C@H]2O[C@H](CO)[C@@H](O)[C@H](O)[C@H]2O)[C@@H](O)[C@@H]1O [sucrose, D-sucrose]
[2]; Exp. 6: unadjusted concentrations (urea 2.5%, EAAs 0.55%, sucrose 2.5% w/v)
  consumption by colonies: preferentially consumed
[2]; Exp. 8: adjusted concentrations (5.55% w/v)
  consumption by colonies: preferentially consumed
[3]
  change of consumption over the season: decreased over time
[4]; Exp. 14, May 21 to Sep. 13, 2021
  change of consumption over the season: declined over time
[4]; Exp. 14: EAA 5.55%, sucrose 5.55%, EAA 1.0% + sucrose 4.55% w/v, water, seven dates, 4 hours
  consumption by field colonies: generally consumed more sucrose
[5]
  consumption by field colonies: equally consumed

## NC(N)=O [urea]
[6]
  consumption by colonies: preferentially consumed
